Patent publication US6800590B2, “2-Pyrimidinyloxy-n-aryl-benzylamine derivatives,their processes and uses” (Shanghai Institute of Organic Chemistry, priority 2003, dated 2004)

Assays:
[1] = system: transplanted paddy seedlings; test: Paddy safety, treatment on stem and leaves of transplanted paddy seedlings; type: in vivo; conditions: 150 g ai/ha, spray on stem and leaves of transplanted paddy seedlings at 4-5-leaves stage
Procedure: The 5-grade evaluation criteria by visual examination for weeding activity and crop safety (i.e. phytotoxicity) are listed in Table 2.
In pots (diameter of 12 cm) containing test soil, paddy seedlings of the given stage are transplanted and grown in the greenhouse at 20-30° C. After growing to 4-5-leaves stage, the spraying treatment on the stem and leaves of paddy seedlings is conducted in a dosage of 150 g ai/ha after diluting the formulation obtained according to Formulating Example 5 into a given concentration. The visual injury and growth state of the individual plants are observed in regular intervals. The evaluation for the crop safety of the compounds is conducted by 5-grade visual observation.

Compound	Effect on tillering [1]	Stunting [1]	melting point [°C]
COc1cc(OC)nc(Oc2ccccc2CNc2ccc(NC(=O)c3ccccc3)cc2)n1 [Compound I-102]	None	10-15%	
CCCNC(=O)c1ccc(NCc2ccccc2Oc2nc(OC)cc(OC)n2)cc1 [Compound I-78, n-propyl 4-[2-(4,6-dimethoxy-2-pyrimidinyloxy)-benzylamino]-benzamide]			96 to 97
COc1cc(OC)nc(Oc2ccccc2CNc2ccc(NC(=O)C(F)(F)F)cc2)n1 [Compound I-103]	None	20-25%	
COc1cc(OC)nc(Oc2ccccc2CNc2ccc(NC(=O)C(C)C)cc2)n1 [Compound I-101]	None	<10%	
COc1cc(OC)nc(Oc2ccccc2CNc2ccc(C(=O)NC(C)C)cc2)n1 [Compound I-79, i-propyl 4-[2-(4,6-dimethoxy-2-pyrimidinyloxy)-benzylamino]benzamide]			83 to 84
